Reference: US5776914A, “Prevention of hemolysis” (The Trustees of the University of Pennsylvania, priority 1994, dated 1998)
Converted amounts (≈) assume the structure as drawn.

Tests used:
[1] = system: erythrocytes; format: cell-based, human
Method: FIG. 2 graphically illustrates the hemolytic effects of two hydroxyalkyl substituted cyclodextrins, 2-hydroxyethyl-β-cyclodextrin (β-CD-4-Et) and 2-hydroxypropyl-β-cyclodextrin (β-CD-4Pr) in comparison to the polyanionically substituted cyclodextrin β-cyclodextrin-tetradecasulfate sodium (β-CD-14s) on fresh human blood to which about 0.47% sodium citrate was added.
The first sample contained erythrocytes and isotonic saline. This first sample served as a zero blank.

[2] = system: erythrocytes; assay: in vitro; format: cell-based, human
[3] = in vitro; format: cell-based, human; settings: human, erythrocytes
[4] = system: erythrocytes; settings: cited from earlier work; for concentration above/at which hemolysis is induced: background statement; for hemolytic activity (in words): known in the art / literature
[5] = solubility limit; format: physicochemical; settings: 20° C.
[6] = system: erythrocytes; assay: inhibition of hemolysis induced by hemolytic agents (CPZ, CD, Pr-OH-CD, clay); settings: for Hemolysis: 15 min
Method: Unless explicitly stated otherwise, hemolytic activity was measured by the procedure described by I. Jodal et al., Proceedings of the Fourth International Symposium on Cyclodextrins, O. Huber and J. Szejtli, Eds., 421-425, Kluwer Academic Publishers, Boston (1988), which is incorporated herein by reference.
For each of the examples which follow, sodium citrate was added about (to about 0.47%) to fresh human blood collected from healthy laboratory personnel. After centrifugation (10 min., 400×G) to separate the erythrocytes from other blood components, the supernatant erythrocyte fraction was recentrifuged and washed twice with isotonic phosphate buffer. The erythrocytes were diluted with that buffer to a 10% hematocrit value to obtain an erythrocyte suspension. Test material and erythrocytes were mixed as follows: about 3.6, 1.8, and 0.9 ml of a test material solution was mixed with about 0.4, 0.2 and 0.1 ml, respectively, of erythrocyte suspension and then incubated for about 15 minutes each at about 37° C., followed by two centrifugations for two minutes each at about 4000×G The resulting supernatants were measured for absorbance at 543 nm using a Gilford spectrophotometer. The percent of hemolysis was determined by reference to two control samples. The first sample contained erythrocytes and isotonic saline. This first sample served as a zero blank. The second sample was identical to the first but had been sonicated to provide a value for 100% hemolysis.

[7] = system: erythrocytes; settings: 1.0 mM β-cyclodextrin, simultaneous use (Uekama 1981); cited from earlier work

## 2-hydroxyethyl-β-cyclodextrin [β-CD-4-Et]
[1]
  hemolytic effect (FIG. 2): induced hemolysis at low concentrations

## 2-hydroxypropyl-β-cyclodextrin [β-CD-4Pr]
[1]
  hemolytic effect (FIG. 2): induced hemolysis at low concentrations

## CN(C)CCCN1c2ccccc2Sc2ccc(Cl)cc21 [CPZ, chloropromazine]
[2]; concentrations approaching 0.5 mg/ml of CPZ
  hemolysis (in words): complete hemolysis
[2]; without CDS, about one-fifth of 2.0 mg/ml CPZ (Example 4)
  hemolysis (in words): substantially complete hemolysis
[3]; 0.5 mg/ml of CPZ
  hemolysis at 0.25 h: ~100%
[3]; CPZ 0.15 mg/ml (Example 1)
  hemolysis at 0.25 h: 4.9%
[3]; CPZ 0.25 mg/ml (Example 2)
  hemolysis at 0.25 h: 7%
[3]; CPZ 0.30 mg/ml (Example 3)
  hemolysis at 0.25 h: 88%
[3]; CPZ 0.40 mg/ml (Example 4)
  hemolysis at 0.25 h: 96%
[4]
  concentration above/at which hemolysis is induced: > 500 µM
  hemolytic activity (in words): hemolysis inducing agents

## CC(C(=O)O)c1ccc(-c2ccccc2)c(F)c1 (stereo not shown) [flurbiprofen]
[4]
  hemolytic activity (in words): hemolysis inducing agents

## C=C[C@]1(C)C[C@@H](OC(=O)CSCCN(CC)CC)[C@]2(C)[C@H](C)CC[C@]3(CCC(=O)[C@H]32)[C@@H](C)[C@@H]1O [tiamulin]
[4]
  hemolytic activity (in words): hemolysis inducing agents

## OC[C@H]1O[C@@H]2O[C@H]3[C@H](O)[C@@H](O)[C@@H](O[C@H]4[C@H](O)[C@@H](O)[C@@H](O[C@H]5[C@H](O)[C@@H](O)[C@@H](O[C@H]6[C@H](O)[C@@H](O)[C@@H](O[C@H]7[C@H](O)[C@@H](O)[C@@H](O[C@H]8[C@H](O)[C@@H](O)[C@@H](O[C@H]1[C@H](O)[C@H]2O)O[C@@H]8CO)O[C@@H]7CO)O[C@@H]6CO)O[C@@H]5CO)O[C@@H]4CO)O[C@@H]3CO [β-CD, β-cyclodextrin]
[5]
  solubility: 13 to 18 mg/mL (≈ 11.5 to 15.9 mM)
[6]; CPZ 0.5 mg/ml (1.5 mM) + CD 5.0 mg/ml (4.0 mM), molar ratio CD/CPZ 2.7 (Example 20)
  Hemolysis: 6.5
[6]; CPZ 0.75 mg/ml (2.25 mM) + CD 7.5 mg/ml (6.0 mM), molar ratio CD/CPZ 2.7 (Example 21)
  Hemolysis: 21
[6]; CPZ 1.0 mg/ml (3.0 mM) + CD 10 mg/ml (8.0 mM), molar ratio CD/CPZ 2.7 (Example 22)
  Hemolysis: 80
[6]; Example 20: CPZ 0.5 mg/ml + CD 5.0 mg/ml
  protection from hemolysis by CPZ (in words): considerable protection
[6]; Examples 21 and 22: CPZ 0.75-1.0 mg/ml + CD 7.5-10 mg/ml
  protection from hemolysis by CPZ (in words): protection is lost
[4]
  concentration above/at which hemolysis is induced: 2000 to 3000 µM
[1]; human
  onset of hemolysis (concentration inducing hemolysis): about 6 mg/ml
[7]
  inhibition of hemolytic action of chlorpromazine: inhibits the hemolytic action

## β-cyclodextrin-tetradecasulfate sodium [β-CD-14s]
[6]; CD about 15 mg/ml, β-CD-14s 50 mg/ml
  reduction of the level of hemolysis: about 41%
[6]; CD about 15 mg/ml, β-CD-14s 150 mg/ml
  fold reduction of hemolysis: about 30 fold
[6]; Example 23: CPZ 1.0 mg/ml + 50 mg/ml CDS
  hemolytic activity of the composition with CPZ (in words): substantially reduced hemolytic activity
[6]; about 70 mg/ml CDS, about 2.0 mg/ml CPZ
  hemolytic effect (in words): negligible hemolytic effect
[6]; hydroxypropyl cyclodextrin 75 mg/ml, β-CD-14s 100 mg/ml
  fold improvement, that is, reduction in hemolysis: at least 20 fold
[1]
  hemolytic effect (FIG. 2): no undesirable hemolytic properties
